Assay results published in ChEMBL document CHEMBL4622945, “Synthesis and antiproliferative activity of C- and N-terminal analogues of culicinin D” (Bioorg Med Chem Lett, 2020).
Square brackets hold non-standard residues; d marks the D form. Peptide text beside a SMILES is read from it. * marks the point of attachment. NH((S)CH(Me)CH2NHC2H4OH) = C[C@@H](CNCCO)N*; Alaψ(CH2NMeCH2CH2OH) = C[C@@H](CN(C)CCO)N*; NH((S)CH(Me)CH2NMe2) = C[C@@H](CN(C)C)N*; Gly(octyl) = CCCCCCCC[C@H](N)C(=O)O; Cha = N[C@@H](CC1CCCCC1)C(=O)O; Decanoyl = CCCCCCCCCC(=O)*; X1 = C[C@@H](CN1CCNCC1)N*; X2 = C[C@@H](CN1CCOCC1)N*; Octanoyl = CCCCCCCC(=O)*; Hexanoyl = CCCCCC(=O)*; Alaol = C[C@@H](CO)N*; Aib = CC(C)(N)C(=O)O; X3 = C[C@H](CNCCO)N*; Butyryl = CCCC(=O)*; βAla = NCCC(=O)O

Legend:
Type in all cases: functional, cell-based
[1] = system: MDA-MB-468; assay: Antiproliferative activity against human MDA-MB-468 cells assessed as reduction in cell growth by SRB assay
[2] = system: NCI-H460; assay: Antiproliferative activity against human NCI-H460 cells assessed as reduction in cell growth by SRB assay
[3] = system: SK-BR-3; assay: Antiproliferative activity against human SKBR3 cells assessed as reduction in cell growth by SRB assay
[4] = system: T47D; assay: Antiproliferative activity against human T47D cells assessed as reduction in cell growth by SRB assay

| Structure (SMILES) | IC50 [1] [nM] | IC50 [2] [nM] | IC50 [3] [nM] | IC50 [4] [nM] |
| --- | --- | --- | --- | --- |
| CCCCCCCC[C@H](NC(=O)C(C)(C)NC(=O)C(C)(C)NC(=O)[C@H](CC1CCCCC1)NC(=O)[C@@H]1CCCN1C(=O)CCC)C(=O)N[C@@H](CC(C)C)C(=O)NC(C)(C)C(=O)N[C@@H](CC(C)C)C(=O)NCCC(=O)N[C@@H](C)CN1CCOCC1 (Butyryl-P[Cha][Aib][Aib][Gly(octyl)]L[Aib]L[βAla]-X2) | 59 | 34 | 99 | 36 |
| CCCCCCCC[C@H](NC(=O)C(C)(C)NC(=O)C(C)(C)NC(=O)[C@H](CC1CCCCC1)NC(=O)[C@@H]1CCCN1C(=O)CCC)C(=O)N[C@@H](CC(C)C)C(=O)NC(C)(C)C(=O)N[C@@H](CC(C)C)C(=O)NCCC(=O)N[C@@H](C)CN(C)CCO (Butyryl-P[Cha][Aib][Aib][Gly(octyl)]L[Aib]L[βAla]-{Alaψ(CH2NMeCH2CH2OH)}) | 2 | 2 | 8 | 3 |
| CCCCCCCCCC(=O)N1CCC[C@H]1C(=O)N[C@@H](CC1CCCCC1)C(=O)NC(C)(C)C(=O)NC(C)(C)C(=O)N[C@@H](CCCCCCCC)C(=O)N[C@@H](CC(C)C)C(=O)NC(C)(C)C(=O)N[C@@H](CC(C)C)C(=O)NCCC(=O)N[C@@H](C)CNCCO (Decanoyl-P[Cha][Aib][Aib][Gly(octyl)]L[Aib]L[βAla]-{NH((S)CH(Me)CH2NHC2H4OH)}) | 6 | 9 | 20 | 13 |
| CCCCCCCC[C@H](NC(=O)C(C)(C)NC(=O)C(C)(C)NC(=O)[C@H](CC1CCCCC1)NC(=O)[C@@H]1CCCN1C(=O)CCC)C(=O)N[C@@H](CC(C)C)C(=O)NC(C)(C)C(=O)N[C@@H](CC(C)C)C(=O)NCCC(=O)N[C@@H](C)CO (Butyryl-P[Cha][Aib][Aib][Gly(octyl)]L[Aib]L[βAla]-Alaol) | 336 | 130 | 509 | 490 |
| CCCCCCCC[C@H](NC(=O)C(C)(C)NC(=O)C(C)(C)NC(=O)[C@H](CC1CCCCC1)NC(=O)[C@H](C)NC(=O)CCC)C(=O)N[C@@H](CC(C)C)C(=O)NC(C)(C)C(=O)N[C@@H](CC(C)C)C(=O)NCCC(=O)N[C@@H](C)CNCCO (Butyryl-A[Cha][Aib][Aib][Gly(octyl)]L[Aib]L[βAla]-{NH((S)CH(Me)CH2NHC2H4OH)}) | 3 | 2 | 10 | 5 |
| CCCCCCCC[C@H](NC(=O)C(C)(C)NC(=O)C(C)(C)NC(=O)[C@H](CC1CCCCC1)NC(=O)[C@@H]1CCCN1C(=O)CCC)C(=O)N[C@@H](CC(C)C)C(=O)NC(C)(C)C(=O)N[C@@H](CC(C)C)C(=O)NCCC(=O)N[C@H](C)CNCCO (Butyryl-P[Cha][Aib][Aib][Gly(octyl)]L[Aib]L[βAla]-X3) | 31 | 50 | 205 | 31 |
| CCCCCCCC[C@H](NC(=O)C(C)(C)NC(=O)C(C)(C)NC(=O)[C@H](CC1CCCCC1)NC(=O)[C@@H]1CCCN1C(=O)CCC)C(=O)N[C@@H](CC(C)C)C(=O)NC(C)(C)C(=O)N[C@@H](CC(C)C)C(=O)NCCC(=O)N[C@@H](C)CN(C)C (Butyryl-P[Cha][Aib][Aib][Gly(octyl)]L[Aib]L[βAla]-{NH((S)CH(Me)CH2NMe2)}) | 4 | 4 | 10 | 6 |
| CCCCCCCC[C@H](NC(=O)C(C)(C)NC(=O)C(C)(C)NC(=O)[C@H](CC1CCCCC1)NC(=O)[C@@H]1CCCN1C(=O)CCCCC)C(=O)N[C@@H](CC(C)C)C(=O)NC(C)(C)C(=O)N[C@@H](CC(C)C)C(=O)NCCC(=O)N[C@@H](C)CNCCO (Hexanoyl-P[Cha][Aib][Aib][Gly(octyl)]L[Aib]L[βAla]-{NH((S)CH(Me)CH2NHC2H4OH)}) | 5 | 4 | 18 | 7 |
| CCCCCCCC[C@H](NC(=O)C(C)(C)NC(=O)C(C)(C)NC(=O)[C@H](CC1CCCCC1)NC(=O)[C@@H]1CCCN1C(=O)CCCCCCC)C(=O)N[C@@H](CC(C)C)C(=O)NC(C)(C)C(=O)N[C@@H](CC(C)C)C(=O)NCCC(=O)N[C@@H](C)CNCCO (Octanoyl-P[Cha][Aib][Aib][Gly(octyl)]L[Aib]L[βAla]-{NH((S)CH(Me)CH2NHC2H4OH)}) | 4 | 4 | 15 | 7 |
| CCCCCCCC[C@H](NC(=O)C(C)(C)NC(=O)C(C)(C)NC(=O)[C@H](CC1CCCCC1)NC(=O)[C@@H]1CCCN1C(=O)CCC)C(=O)N[C@@H](CC(C)C)C(=O)NC(C)(C)C(=O)N[C@@H](CC(C)C)C(=O)NCCC(=O)N[C@@H](C)CN1CCNCC1 (Butyryl-P[Cha][Aib][Aib][Gly(octyl)]L[Aib]L[βAla]-X1) | > 1000 | > 1000 | > 1000 | > 1000 |
| CCCCCCCC[C@H](NC(=O)C(C)(C)NC(=O)C(C)(C)NC(=O)[C@H](CC1CCCCC1)NC(=O)[C@@H]1CCCN1C(C)=O)C(=O)N[C@@H](CC(C)C)C(=O)NC(C)(C)C(=O)N[C@@H](CC(C)C)C(=O)NCCC(=O)N[C@@H](C)CNCCO (Ac-P[Cha][Aib][Aib][Gly(octyl)]L[Aib]L[βAla]-{NH((S)CH(Me)CH2NHC2H4OH)}) | 13 | 11 | 52 | 15 |
